{
  "source": "patent US7947726B2",
  "about": "“Non-steroidal ligands for the glucocorticoid receptor, and compositions thereof” (The Regents of the University of California, priority 2002, dated 2011)",
  "target": "T1, PR (Homo sapiens, UniProt P06401)",
  "T1 sequence (P06401 1-933)": "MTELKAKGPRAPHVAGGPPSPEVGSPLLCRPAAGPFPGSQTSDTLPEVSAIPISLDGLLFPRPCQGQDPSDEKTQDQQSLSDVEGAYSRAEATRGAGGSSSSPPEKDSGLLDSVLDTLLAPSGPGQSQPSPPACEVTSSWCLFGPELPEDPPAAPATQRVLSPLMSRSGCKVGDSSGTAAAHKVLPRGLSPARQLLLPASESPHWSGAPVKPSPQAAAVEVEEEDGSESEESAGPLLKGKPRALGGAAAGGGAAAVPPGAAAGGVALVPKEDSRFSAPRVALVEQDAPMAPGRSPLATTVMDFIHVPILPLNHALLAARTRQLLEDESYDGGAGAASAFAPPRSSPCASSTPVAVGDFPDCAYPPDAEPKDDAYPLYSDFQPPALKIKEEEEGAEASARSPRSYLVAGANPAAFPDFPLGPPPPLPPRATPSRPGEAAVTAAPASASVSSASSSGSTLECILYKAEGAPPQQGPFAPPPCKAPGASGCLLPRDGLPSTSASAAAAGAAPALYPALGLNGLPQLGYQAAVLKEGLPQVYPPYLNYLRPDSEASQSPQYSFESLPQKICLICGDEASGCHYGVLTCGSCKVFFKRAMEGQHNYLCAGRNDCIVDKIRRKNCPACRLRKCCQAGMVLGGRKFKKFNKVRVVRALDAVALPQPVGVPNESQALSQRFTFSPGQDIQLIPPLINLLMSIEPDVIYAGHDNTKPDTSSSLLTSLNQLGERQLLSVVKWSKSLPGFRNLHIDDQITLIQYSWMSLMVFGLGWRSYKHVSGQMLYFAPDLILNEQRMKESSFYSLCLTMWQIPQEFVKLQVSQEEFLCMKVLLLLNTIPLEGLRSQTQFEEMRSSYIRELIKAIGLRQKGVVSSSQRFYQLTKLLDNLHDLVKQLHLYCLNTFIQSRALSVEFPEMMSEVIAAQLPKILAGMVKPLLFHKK",
  "assay": "PR activation (max fold activation)",
  "assay_type": "cell-based",
  "details": "Table 4",
  "data": [
    {"smiles": "CC(=O)[C@H]1CC[C@H]2[C@@H]3CCC4=CC(=O)CC[C@]4(C)[C@H]3CC[C@]12C", "note": "[Progesterone, reference compound]", "values": [
      {"measurement": "PR max fold activation", "value": "255 ± 72"}
    ]}
  ]
}
